Article PMC5365645, “Preclinical Pharmacokinetics and Pharmacodynamic Target of SCY-078, a First-in-Class Orally Active Antifungal Glucan Synthesis Inhibitor, in Murine Models of Disseminated Candidiasis” (Antimicrobial Agents and Chemotherapy, 2017)
Like-named read-outs stand apart in the source and are kept apart here.

What was measured:
[1] = In vitro metabolic stability in hepatic microsomes; type: in vitro ADME, mouse; settings: for remaining at 0.5 h, 1 µM: read-out: % remaining after 30 min; for half-life at 1 μM / microsomal CLint at 1 μM: pooled liver microsomes
Procedure: (§1) The metabolic stability of SCY-078 was assessed after incubation with mouse, rat, dog, and human liver microsomes (Table 2) ([10]). […] The half-lives in rodent, dog, and human liver microsomes were ≥125, ≥29, and ≥42 min, respectively.
(§2) The metabolic stability of SCY-078 was evaluated with male and female mouse, male rat, male and female dog, and mixed-gender human liver microsomes (XenoTech, Lenexa, KS). SCY-078 (1 μM) was incubated with pooled liver microsomes (0.5 mg protein/ml) for 0, 5, 10, 20, and 30 min at 37°C in the presence of NADPH. Aliquots were taken at each sampling time point and extracted with 5 volumes of ice-cold acetonitrile containing the internal standard (d9-SCY-078, 125 ng/ml). Supernatants from the incubation mixtures were analyzed for the parent compound by LC-MS/MS according to the conditions described below. The metabolic competency of microsomal preparations was established using the control compounds 7-ethoxycoumarin, propranolol, and verapamil. The in vitro intrinsic clearance (CLint), the CLint scaled to the in vivo intrinsic clearance (CL′int), and the half-life were determined for SCY-078 incubated with microsomes from each species.

[2] = set-up: method as in ref 5 = [5]; 5. Trucksis M , Garrett G , Bautmans A , Heirman I , Laethem M , Comisar WA , Maganti L , Bi S , Iwamoto M , O'Mara E , Wagner JA , Depre M , de Hoon J 2011 A phase I multiple-rising dose study evalua; settings: single- and multiple-dose phase 1 and 2 clinical studies ref 5; cited from earlier work
in vivo [3] = test: in vivo; set-up: species or system female CD-1 mice; settings: female, CD-1, mouse
Procedure: The pharmacokinetics and bioavailability of SCY-078 were evaluated in uninfected mouse, rat, and dog after p.o. and i.v. administration. The in vivo phases of the PK studies were performed at either […] (Waltham, MA) or MPI Research (Mattawan, MI) after an Institutional Animal Care and Use Committee (IACUC) review. […] and MPI Research are Association for Assessment and Accreditation of Laboratory Animal Care International (AAALAC)-approved facilities. […] The peak concentration (Cmax), the time to maximum concentration (Tmax), the half-life, and the AUC were determined from composite mean plasma concentration-time data for rodents and individual plasma concentration-time data for dogs. All doses and plasma concentrations of SCY-078 are presented as free base.

in vivo [4] = test: in vivo; set-up: species or system mice, rats, and dogs
Procedure: The pharmacokinetics and bioavailability of SCY-078 were evaluated in uninfected mouse, rat, and dog after p.o. and i.v. administration. The in vivo phases of the PK studies were performed at either […] (Waltham, MA) or MPI Research (Mattawan, MI) after an Institutional Animal Care and Use Committee (IACUC) review. […] and MPI Research are Association for Assessment and Accreditation of Laboratory Animal Care International (AAALAC)-approved facilities. […] The peak concentration (Cmax), the time to maximum concentration (Tmax), the half-life, and the AUC were determined from composite mean plasma concentration-time data for rodents and individual plasma concentration-time data for dogs. All doses and plasma concentrations of SCY-078 are presented as free base. […] Male and female Wistar Han rats (n = 3/sex/group/time point) weighing 0.329 to 0.398 kg (males) or 0.187 to 0.244 kg (females) received a single 5-mg/kg dose of SCY-078 as an i.v. injection in the lateral tail administered over 5 min or an oral dose of 20 mg/kg as described above. Blood specimens were collected from four animals/time point/group using a sparse sampling strategy via the sublingual vein at time intervals to 72 h postdosing and processed as described above. Treatment naive male and female beagle dogs (n = 3/sex/group/time point) weighing 8 to 12 kg (males) or 6 to 10 kg (females) were given a single 5-mg/kg dose of SCY-078 as an i.v. injection over 5 min or an oral dose of 20 mg/kg as described above. Blood specimens were collected from the jugular vein at various time intervals to 72 h postdosing and processed as described above.

C. albicans CLY724 = test: Single delayed-dose treatment model of disseminated candidiasis; type: in vivo, mice; settings: single dose 16 h after infection, tissue burden 96 h after treatment, regression analysis
[5] = In vitro metabolic stability in hepatic microsomes; type: in vitro ADME; settings: for remaining at 0.5 h, 1 µM: read-out: % remaining after 30 min
Procedure: as §1, §2

[6] = female (mouse), both (rat, dog), CD-1 (mouse), Wistar Han (rat), beagle (dog), dog, po
[7] = both sexes, human, pooled liver microsomes, human (mixed) liver microsomes
[8] = pooled liver microsomes, male rat liver microsomes

In the case of CC(C)[C@@H](C)[C@@]1(C)CC[C@]2(C)[C@H]3CC[C@@H]4[C@@]5(COC[C@@]4(C)[C@@H](OC[C@](C)(N)C(C)(C)C)[C@H](n4ncnc4-c4ccncc4)C5)C3=CC[C@@]2(C)[C@@H]1C(=O)O [SCY-078, (1S,4aR,6aS,7R,8R,10aR,10bR,12aR,14R,15R)-15-[[(2R)-2-amino-2,3,3-trimethylbutyl]oxy]-8-[(1R)-1,2-dimethylpropyl]-14-[5-(4-pyridinyl)-1H-1,2,4-triazol-1-yl]-1,6,6a,7,8,9,10,10a,10b,11,12,12a-dodecahydro-1,6a,8,10a-tetramethyl-4H-1,4a-propano-2H-phenanthro[1,2-c]pyran-7-carboxylic acid], the remaining at 0.5 h, 1 µM ([1]; female mouse liver microsomes) is reported as 88%, the remaining at 0.5 h, 1 µM ([1]; male mouse liver microsomes) is reported as 95% and the half-life at 1 μM ([1]; female mouse liver microsomes) is reported as > 2.25 h. For the same compound, the microsomal CLint at 1 μM ([1]; female mouse liver microsomes) was < 10 µL/min/mg, the half-life at 1 μM ([1]; male mouse liver microsomes) was > 2.25 h and the microsomal CLint at 1 μM ([1]; male mouse liver microsomes) was < 10 µL/min/mg. For the same compound, the Tolerability [2] was “well tolerated”, the bioavailability (in vivo [3]; 6.25 mg/kg) was > 41% and the bioavailability (in vivo [3]; 12 mg/kg) was > 51%. For the same compound, the “Dose normalized AUC0–∞ to a 1-mg/kg dose” value (in vivo [3]; iv) was 1.4 µg·h/mL, the AUC(0-inf) (in vivo [3]; iv, 1 mg/kg) was 1460 ng·h/mL and the Vd ss (in vivo [3]; iv, 1 mg/kg) was 5.3 L/kg. It also gave a clearance (in vivo [3]; iv, 1 mg/kg) of 11.3 mL/min/kg, an AUC(0-t) (in vivo [3]; iv, 1 mg/kg, AUC0–24) of 1390 ng·h/mL and a Vd (in vivo [3]; iv, 1 mg/kg, Vd ss) of 5.26 L/kg. It also gave a half-life (in vivo [3]; iv, 1 mg/kg, t1/2) of ~5.5 h, a concentration at 4 h (in vivo [3]; po) of 1490 ± 690 ng/mL and an AUC(0-inf) (in vivo [3]; po, 6.25 mg/kg) of 9560 ng·h/mL. The Cmax (in vivo [3]; po, 6.25 mg/kg) was 640 ng/mL, the Tmax (in vivo [3]; po, 6.25 mg/kg) was 4 h and the concentration at 12 h (in vivo [3]; po, 6.25 mg/kg) was 370 ± 60 ng/mL. It also gave an AUC(0-t) (in vivo [3]; po, 6.25 mg/kg, AUC0–12) of 3110 ng·h/mL, an AUC(0-t) (in vivo [3]; po, 6.25 mg/kg, AUC0–24) of 8360 ng·h/mL and a Cmax (in vivo [3]; po, 6.25 mg/kg, Cmax) of 390 ng/mL. The half-life (in vivo [3]; po, 6.25 mg/kg, t1/2) was 7.8 h, the “AUC0–12” value (in vivo [3]; po, 12 mg/kg) was 15100 ng·h/mL and the “AUC0–24” value (in vivo [3]; po, 12 mg/kg) was 22520 ng·h/mL. It also gave an AUC(0-inf) (in vivo [3]; po, 12 mg/kg) of 28300 ng·h/mL, a Cmax (in vivo [3]; po, 12 mg/kg) of 1610 ng/mL and a Tmax (in vivo [3]; po, 12 mg/kg) of 6 h. The concentration at 12 h (in vivo [3]; po, 12 mg/kg) was 850 ± 220 ng/mL, the AUC(0-t) (in vivo [3]; po, 12 mg/kg, AUC0–12) was 7580 ng·h/mL and the AUC(0-t) (in vivo [3]; po, 12 mg/kg, AUC0–24) was 22500 ng·h/mL. The Cmax (in vivo [3]; po, 12 mg/kg, Cmax) was 900 ng/mL, the half-life (in vivo [3]; po, 12 mg/kg, Half-life in plasma) was ~8.3 h and the half-life (in vivo [3]; po, 12 mg/kg, t1/2) was 8.8 h. The “Accumulation factor for AUC” value (in vivo [3]; po, 7 days) was ~2 fold, the “Accumulation factor for Cmax” value (in vivo [3]; po, 7 days) was ~2 fold and the Cmax (in vivo [4]; CD-1 (mouse), Wistar Han (rat), beagle (dog), dog, po) was ~1000 ng/mL. It also gave a half-life (in vivo [4]; both sexes, CD-1, Wistar Han, mouse, rat, po) of 7.8 to 9.1 h, a half-life (in vivo [4]; female (mouse), both (rat), CD-1 (mouse), Wistar Han (rat), iv) of 5.5 to 8.7 h and a Vd (in vivo [4]; female (mouse), both (rat, dog), CD-1 (mouse), Wistar Han (rat), beagle (dog), dog, iv) of 4.7 to 5.3 L/kg. The “Dose normalized AUC0–12 across species” value (in vivo [4]; [6]) was 0.5-0.8 μg/ml·h/mg/kg dose, the Tmax (in vivo [4]; [6]) was 4 to 6 h and the “Dose achieving stasis endpoint” value (C. albicans CLY724) was 9.93 mg/kg. For the same compound, the half-life at 1 μM [5, 7] was ≥ 0.7 h, the microsomal CLint at 1 μM [5, 7] was 34 µL/min/mg and the remaining at 0.5 h, 1 µM ([5]; both sexes, pooled liver microsomes, human (mixed) liver microsomes) was 61%. The CLint ([5]; human (mixed) liver microsomes) was 33 µL/min/mg, the remaining at 0.5 h, 1 µM ([5]; male rat liver microsomes) was 84% and the half-life at 1 μM [5, 8] was 2.08 h. For the same compound, the microsomal CLint at 1 μM [5, 8] was 11 µL/min/mg.
